One may read the GI50 as the concentration giving 50% growth inhibition. Broadly, the CC50 is the concentration that lowers cell viability or growth by half. Low readings indicate harm at low concentration, high ones better tolerance by the cells.

Calls of active or inactive are those of the source. The calls are words filed in the database; no cut-off is given here.

GI50, Activity and CC50 data for three molecules are collected here from ChEMBL document CHEMBL1221366, “Pitucamycin: structural merger of a phenoxazinone with an epoxyquinone antibiotic” (J Nat Prod, 2010).

The subject of one data set is HEK293. The data set is described as follows: Antiproliferative activity against human HEK293 cells assessed as inhibition of cell growth. The format is functional.
The next data set deals with Bacillus subtilis. Kind of data set: Antimicrobial activity against Bacillus subtilis 6633 B1 by agar diffusion assay. The data set is classed as functional, organism-based. For orientation: A growth-free zone around the sample is the usual read-out of agar diffusion tests.
The test system of data set [1] is Sporobolomyces salmonicolor. The data set is described as follows: Antimicrobial activity against Sporidiobolus salmonicolor 549 H4 by agar diffusion assay. The data set is classed as functional, organism-based.
Another data set concerns K562. The data set is described as follows: Antiproliferative activity against human K562 cells assessed as inhibition of cell growth. The format is functional.
In another data set the test system is Enterococcus faecalis. The data set is described as follows: Antimicrobial activity against vancomycin-resistant Enterococcus faecalis 1528 R10 by agar diffusion assay. The data set is classed as functional, organism-based.
Data set [2] in a line: Antiproliferative activity against HUVEC assessed as inhibition of cell growth. The format is cell-based. Particulars: human, HUVEC cells.
In the next data set the test system is Pseudomonas aeruginosa. Kind of data set: Antimicrobial activity against Pseudomonas aeruginosa SG137 B7 by agar diffusion assay. The data set is classed as functional, organism-based.
The test system of another data set is HepG2. Kind of data set: Antiproliferative activity against human HepG2 cells assessed as inhibition of cell growth. The data set is classed as functional.
The next data set has as its system Candida albicans. The data set is described as follows: Antimicrobial activity against Candida albicans H8 by agar diffusion assay. The data set is classed as functional, organism-based.
A further data set relates to Escherichia coli. The data set is described as follows: Antimicrobial activity against Escherichia coli 458 B4 by agar diffusion assay. The data set is classed as functional, organism-based.
For another data set, the system named is HeLa. The data set is described as follows: Cytotoxicity against human HeLa cells. The format is functional.
The next data set concerns THP-1. The data set is described as follows: Antiproliferative activity against human THP1 cells assessed as inhibition of cell growth. The data set is classed as functional.
For another data set, the system named is Raji. Kind of data set: Antiproliferative activity against human Raji cells assessed as inhibition of cell growth. The format is functional.
Data set [3] deals with Staphylococcus aureus. Kind of data set: Antimicrobial activity against methicillin-resistant Staphylococcus aureus 134/93R9 by agar diffusion assay. The format is functional, organism-based.
The next data set has as its system Penicillium chrysogenum. The data set is described as follows: Antimicrobial activity against Penicillium notatum JP36 P1 by agar diffusion assay. The format is functional, organism-based.
A further data set deals with Mycolicibacterium vaccae. The data set is described as follows: Antimicrobial activity against Mycobacterium vaccae 10670 M4 by agar diffusion assay. The format is functional, organism-based.
The test system of another data set is MCF7. The data set is described as follows: Antiproliferative activity against human MCF7 cells assessed as inhibition of cell growth. The format is functional.
Data set [4] has as its system Staphylococcus aureus. The data set is described as follows: Antimicrobial activity against Staphylococcus aureus 511 B3 by agar diffusion assay. The format is functional, organism-based.

As to `O=C(CO)Nc1cc2nc3cc(CO)ccc3oc-2cc1=O` [CHANDRANANIMYCIN D], the GI50 in the data set on HEK293 amounted to 10.3 µM; in the data set with K562 it was 16.6 µM; in data set [2], 5.3 µM; in the data set with HepG2, 6.6 µM; with THP-1, 27.6 µM; in the data set with Raji, 9.6 µM. Also, in the data set with MCF7, the GI50 came out at 1.3 µM. Also, the outcome (with Bacillus subtilis; in data set [1]; with Enterococcus faecalis; with Pseudomonas aeruginosa; in the data set with Candida albicans; with Escherichia coli) was inactive. Further, the outcome in the data set with Staphylococcus aureus [3], with Penicillium chrysogenum, with Mycolicibacterium vaccae and in the data set on Staphylococcus aureus [4] was inactive. This molecule also displayed a CC50 in the data set with HeLa of 90.6 µM.
Take `CC(=O)N[C@@H](CSc1c2nc3cc(C(=O)O)ccc3oc-2cc(=O)c1N)C(=O)O` [GRIXAZONE B]: the results for the GI50 (in the data set on K562; in [2]) were above 76.4 µM and above 120 µM, respectively. This molecule also had a CC50 with HeLa above 120 µM.
With `NC(=O)C1=C(N)[C@@H](O)[C@H](O)[C@@H](Nc2cc3nc4cc(CO)ccc4oc-3cc2=O)C1=O` [PITUCAMYCIN], the result (in the data set on Bacillus subtilis; in data set [1]; in the data set with Enterococcus faecalis; with Pseudomonas aeruginosa; with Candida albicans; in the data set with Escherichia coli) was inactive. In addition, the outcome with Staphylococcus aureus [3], in the data set on Penicillium chrysogenum, with Mycolicibacterium vaccae and in the data set with Staphylococcus aureus [4] was inactive. Further, the GI50 in the data set with K562 was determined as 27.6 µM; in data set [2], 36.6 µM. The CC50 in the data set on HeLa was 74.8 µM.
